# Results from paper PMC2898832, “Active site plasticity revealed from the structure of the enterobacterial N-ribohydrolase RihA bound to a competitive inhibitor” (2010).
# Molecular target: T1, RihA (Escherichia coli, UniProt P41409)
# T1 construct: full-length rihA (936 bp) from E. coli K12 derivative DH5α; N-terminal His-tag removed with thrombin; tetramer
# Assay: X-ray co-crystal structure at […] Å; KI from competitive inhibition of uridine hydrolysis by purified enzyme
# Type: biochemical
# T1 sequence (P41409 whole entry): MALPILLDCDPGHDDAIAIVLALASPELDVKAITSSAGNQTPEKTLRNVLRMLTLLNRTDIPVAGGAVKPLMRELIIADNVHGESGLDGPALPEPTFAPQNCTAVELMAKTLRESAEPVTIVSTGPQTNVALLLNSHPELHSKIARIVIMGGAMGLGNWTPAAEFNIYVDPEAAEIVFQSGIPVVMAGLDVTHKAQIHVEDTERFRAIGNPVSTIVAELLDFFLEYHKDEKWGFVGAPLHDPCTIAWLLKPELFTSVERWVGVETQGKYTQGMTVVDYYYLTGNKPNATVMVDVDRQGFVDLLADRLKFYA
compound,measurement,value
Nc1ccc([C@@H]2N[C@H](CO)[C@@H](O)[C@H]2O)cc1N [DAPIR],Ki,85 ± 7 µM
